This note sets out measurements from PubChem BioAssay (NCI).

Structures are written as SMILES.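 96-well plates; 48 h exposure; 5 concentrations. Endpoints by linear interpolation between flanking doses. Not reached: highest tested concentration assigned. The concentration for 50% growth inhibition is given as GI50. TGI denotes the concentration required for complete inhibition of growth.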

Among the test systems are COLO 205 colon; MALME-3M melanoma; NCI-H226 lung; NCI-H460 lung; OVCAR-5 ovarian; SK-OV-3 ovarian; SR leukemia; UACC-257 melanoma; UACC-62 melanoma; HCC-2998 colon.
What all share (test): NCI tumour cell line growth inhibition, 48 h

Regarding `Oc1cccc(-c2nc3ccccc3s2)c1`, the TGI in the test with COLO 205 colon is > 100 µM; with MALME-3M melanoma it was 31.1 µM; in the test with NCI-H226 lung it was 73 µM; in the test with NCI-H460 lung it was > 100 µM; with OVCAR-5 ovarian, 51.5 µM; in the test with SK-OV-3 ovarian, > 100 µM. Further, the TGI with SR leukemia, with UACC-257 melanoma and in the test on UACC-62 melanoma was > 100 µM throughout.

`CC1(C)N=C(N)N=C(N)N1c1ccc(OCC(=O)Nc2cccc(S(=O)(=O)F)c2)c(Cl)c1`: the TGI was > 100 µM in the test with COLO 205 colon; > 100 µM in the test with HCC-2998 colon; > 19.9 µM in the test on MALME-3M melanoma; 77.2 µM with NCI-H226 lung; > 100 µM with NCI-H460 lung; > 100 µM in the test on OVCAR-5 ovarian. In addition, the TGI with SK-OV-3 ovarian was > 100 µM; in the test on SR leukemia it was > 100 µM; in the test on UACC-257 melanoma, > 14.2 µM.

In the case of `CC[C@]12C=CCN3CC[C@]4(C(=C(C(=O)OC)C1)Nc1cc(O)ccc14)[C@@H]32`, the GI50 with COLO 205 colon was 21.8 µM; with HCC-2998 colon, 14.9 µM; in the test on MALME-3M melanoma, 11.8 µM; in the test on NCI-H460 lung, 18.9 µM; in the test with OVCAR-5 ovarian, 19.8 µM; with SR leukemia it was 12.3 µM. The GI50 in the test with UACC-257 melanoma was 25.8 µM; in the test with UACC-62 melanoma it was 7.18 µM. Further, the TGI in the test on COLO 205 colon was 47.3 µM; with HCC-2998 colon, 29.6 µM; in the test with MALME-3M melanoma, 26.3 µM; in the test with NCI-H460 lung, 38.5 µM; in the test with OVCAR-5 ovarian, 57 µM; with SR leukemia, > 100 µM. Further, the TGI was 85.9 µM in the test with UACC-257 melanoma and 22.3 µM in the test on UACC-62 melanoma.

For the compound `Cn1c(=O)c2c3oc(=O)cc(O)c3c(=O)n3c4ccccc4n(c1=O)c23`, the TGI in the test with COLO 205 colon is 72.6 µM; in the test on HCC-2998 colon, > 100 µM; in the test with MALME-3M melanoma, > 100 µM; in the test on NCI-H460 lung, > 100 µM; in the test on OVCAR-5 ovarian, > 100 µM; in the test with SK-OV-3 ovarian, > 100 µM. The TGI in the test on SR leukemia was > 100 µM; in the test with UACC-257 melanoma it was 82.9 µM; in the test with UACC-62 melanoma, > 100 µM.

Turning to `CC(CS(=O)(=O)Cc1ccccc1)C(N)=O` (stereo not given), the TGI with COLO 205 colon, in the test with MALME-3M melanoma, with NCI-H226 lung, in the test on NCI-H460 lung, in the test with OVCAR-5 ovarian and with SK-OV-3 ovarian was > 100 µM throughout. Further, the TGI in the test on SR leukemia, in the test on UACC-257 melanoma and with UACC-62 melanoma was > 100 µM in each case.

As for `COC(=O)C(CC=O)C(=O)C(=O)Nc1cccc(C(F)(F)F)c1` (stereo not given), the TGI in the test on HCC-2998 colon, in the test with MALME-3M melanoma, in the test on NCI-H226 lung, in the test with NCI-H460 lung, in the test on OVCAR-5 ovarian and with SK-OV-3 ovarian was > 100 µM in each case. In addition, the TGI in the test on SR leukemia, with UACC-257 melanoma and with UACC-62 melanoma was > 100 µM in each case.

On to `COc1ccc([Se]c2ccc(OC)cc2OC)c(OC)c1`, for which the TGI is 27.1 µM in the test on COLO 205 colon; > 100 µM in the test with MALME-3M melanoma; 83.3 µM with NCI-H226 lung; > 100 µM in the test with NCI-H460 lung; > 100 µM with OVCAR-5 ovarian; 92.1 µM with SK-OV-3 ovarian. Also, the TGI in the test with SR leukemia is 45.7 µM; in the test with UACC-257 melanoma, > 100 µM; in the test on UACC-62 melanoma, > 100 µM.

Turning to `COc1ccc(C[C@H]2C[C@@H](O)[C@@H](C)C/C=C/Cc3cccc(O)c3C(=O)O2)cn1`, the GI50 was 34 µM in the test on COLO 205 colon; 17.4 µM in the test on HCC-2998 colon; 27.3 µM with NCI-H226 lung; 22.7 µM in the test on NCI-H460 lung; 19 µM with OVCAR-5 ovarian; 45.6 µM in the test with SK-OV-3 ovarian. The GI50 in the test on SR leukemia is 7.44 µM; with UACC-257 melanoma it was 21.5 µM; in the test with UACC-62 melanoma it was 22.1 µM. The TGI with COLO 205 colon is > 100 µM; with HCC-2998 colon, 44.8 µM; in the test on NCI-H226 lung, > 100 µM; with NCI-H460 lung, 96.3 µM; in the test with OVCAR-5 ovarian it was 37.2 µM; in the test with SK-OV-3 ovarian it was > 100 µM. Also, the figures for the TGI with SR leukemia, in the test on UACC-257 melanoma and in the test with UACC-62 melanoma were 33.7 µM, 71.4 µM and 64.2 µM, respectively.

With `CC(=O)NC1C(OCc2ccccc2)OC(COC(=O)CCCCCCCCCCNC(=O)c2cccc3c(=O)c4ccccc4[nH]c23)C(O)C1OC(C)C(=O)NC(C)C(=O)NC(CCC(N)=O)C(N)=O` (stereo not given), the TGI with COLO 205 colon, with NCI-H226 lung, in the test with NCI-H460 lung, in the test with OVCAR-5 ovarian, in the test with SK-OV-3 ovarian and in the test on SR leukemia was > 100 µM throughout. The TGI in the test on UACC-257 melanoma and in the test on UACC-62 melanoma was > 100 µM in each case.

On to `O=C(Oc1c(I)ccccc1=O)c1ccc([N+](=O)[O-])cc1`, for which the TGI was 27.8 µM in the test on COLO 205 colon; 49.5 µM in the test with HCC-2998 colon; 30.7 µM in the test with MALME-3M melanoma; 23.5 µM in the test on NCI-H460 lung; > 100 µM in the test with OVCAR-5 ovarian; 24.2 µM in the test on SR leukemia. Moreover, the TGI came out at 35.1 µM with UACC-257 melanoma and 51 µM in the test with UACC-62 melanoma.

As for `O=C1C=C(Nc2cccc(Br)c2)c2ccccc2C1=O`, the GI50 in the test on COLO 205 colon is > 100 µM; in the test with HCC-2998 colon, 12.1 µM; in the test with NCI-H226 lung, 21.7 µM; in the test on NCI-H460 lung, 0.402 µM; with OVCAR-5 ovarian, 14.5 µM; with SK-OV-3 ovarian, 6.42 µM. For the same compound, the GI50 was 10.2 µM in the test on SR leukemia, 5.99 µM in the test on UACC-257 melanoma and 2.96 µM in the test on UACC-62 melanoma. For the same compound, the TGI in the test with COLO 205 colon is > 100 µM; in the test on HCC-2998 colon, > 100 µM; with NCI-H226 lung it was 99.4 µM; in the test with NCI-H460 lung, 25.7 µM; in the test with OVCAR-5 ovarian it was 34.3 µM; in the test on SK-OV-3 ovarian it was 30 µM. Moreover, the TGI with SR leukemia is 40.3 µM; with UACC-257 melanoma it was > 100 µM; with UACC-62 melanoma it was 18 µM.

Turning to `Cc1c(C(C)C)cc(OCCO)cc1C(C)C`, the TGI with COLO 205 colon, in the test on HCC-2998 colon, with NCI-H226 lung, in the test with NCI-H460 lung, in the test with OVCAR-5 ovarian and in the test with SK-OV-3 ovarian was > 100 µM throughout. For the same compound, the TGI was 73.8 µM in the test with SR leukemia, > 100 µM in the test with UACC-257 melanoma and > 100 µM with UACC-62 melanoma.

On to `CCOC(=O)c1cnc2[nH]c(=O)c3ccccc3n2c1=O`, for which the TGI with COLO 205 colon, in the test on MALME-3M melanoma, with NCI-H226 lung, in the test on NCI-H460 lung, in the test on OVCAR-5 ovarian and in the test with SK-OV-3 ovarian was > 100 µM each time. Moreover, the TGI with SR leukemia, with UACC-257 melanoma and in the test with UACC-62 melanoma was > 100 µM each time.
